The values below come from patent US4209588A, “Process for producing new antitumor anthracycline antibiotics” (Zaidan Hojin Biseibutsu Kagaku Kenkyu Kai, priority 1976, dated 1980).

Data set [1] relates to Mycobact. smegmatis ATCC 607. Description: Minimum inhibitory concentration, broth dilution method. For orientation: Broth dilution looks for growth in wells or tubes with falling amounts of substance.
Data set [2] is described as follows: Acute toxicity, single intraperitoneal injection. Conditions: mouse, in vivo, ip; single i.p. injection, dd mice; read-out: LD50, intraperitoneal administration.
In data set [3] the test system is Mic. flavus. Briefly: Minimum inhibitory concentration, broth dilution method. Conditions: Micrococcus flavus.
The subject of data set [4] is P388 leukemia. Briefly: Inhibition of growth of P388 leukemia in mice. The settings on record: P388 leukemia in mice; in words. The data set is classed as in vivo.
In data set [5] the test system is Corv. bovis 1810. Description: Minimum inhibitory concentration, broth dilution method.
In data set [6] the test system is Ps. fluoroescens NIHJB-254. The description is as above.
Data set [7] deals with Sar. lutea ATCC 9341. The description is as above. Conditions: Micrococcus luteus, ATCC9341.
Data set [8] concerns Pr. morganii. The description is as above. The settings on record: Morganella morganii.
The subject of data set [9] is L1210 cells. Description: Growth inhibition of cultured L1210 cells. The settings on record: Mus musculus, L1210, read-out: % Inhibition, Growth (on Day 2).
The test system of data set [10] is Staph. aureus Smith. Briefly: Minimum inhibitory concentration, broth dilution method. Conditions: Staphylococcus aureus.
Data set [11] deals with Bac. subtilis ATCC 6633. The description is as above. Conditions: Bacillus subtilis, ATCC6633.
Data set [12] has as its system Bac. megaterium NRRL B-938. The description is as above. Conditions: Priestia megaterium, NRRLB938.
Data set [13] deals with Staph. aureus FDA 209P. The data set is described as above. The settings on record: Staphylococcus aureus, FDA209P.
Data set [14] has as its system Can. albicans IAM 4905. Described as above. The settings on record: Candida albicans, IAM4905.
The subject of data set [15] is Can. tropicalis IAM 4942. The data set is described as above. Conditions: Candida tropicalis, IAM4942.
The test system of data set [16] is Bac. cereus ATCC 9634. The data set is described as above. Conditions: Bacillus cereus, ATCC9634.
Data set [17] has as its system solid and ascitic-type mammalian malignant tumors. Briefly: Inhibitory action against solid and ascitic-type mammalian malignant tumors. The format is in vivo, mammals. Conditions: solid and ascitic-type mammalian tumors; in words.

Converted amounts (≈) assume the structure as drawn.

A word on the MIC: it is the least concentration at which growth counts as inhibited. Low values mean greater potency, high ones weaker potency. Broadly, the inhibition is the change of the read-out against control, counted positive when it falls. For `CC[C@@]1(O)C[C@H](O[C@H]2C[C@H](NC)[C@H](O[C@H]3C[C@H](O)[C@H](O[C@H]4CCC(=O)[C@H](C)O4)[C@H](C)O3)[C@H](C)O2)c2c(cc3c(c2O)C(=O)c2c(O)cccc2C3=O)[C@H]1C(=O)OC` [MA 144-L], the MIC in data set [1] is 3.1 µg/mL (≈ 3.89 µM); in data set [3] it was 0.2 µg/mL (≈ 0.251 µM); in data set [5] it was 1.56 µg/mL (≈ 1.96 µM); in [6], 100 µg/mL (≈ 125 µM); in data set [7], 0.78 µg/mL (≈ 0.978 µM); in data set [8], more than 100 µg/mL. Also, the MIC is 1.56 µg/mL (≈ 1.96 µM) in [10]; 3.1 µg/mL (≈ 3.89 µM) in data set [11]; 6.25 µg/mL (≈ 7.83 µM) in [12]; 6.25 µg/mL (≈ 7.83 µM) in [13]; 100 µg/mL (≈ 125 µM) in data set [14]; 100 µg/mL (≈ 125 µM) in data set [15]. Also, the MIC in data set [16] was 1.56 µg/mL (≈ 1.96 µM). Moreover, the LD50 in data set [2] was determined as 45.5 mg/kg. For the same compound, in [4], the “inhibiting the growth of P388 leukemia” value is on record as “effective in inhibiting the growth of malignant tumors”. Further, the inhibition at 0.1 µg/mL in data set [9] was 27.4%. Further, in data set [17], the “inhibitory action against malignant tumors” value is listed as “marked inhibitory action”.
